According to ChEMBL document CHEMBL3045060, “Synthesis of some urea and thiourea derivatives of naphtha[1,2-d]thiazol-2-amine as anti-Parkinsonian agents that cause neuroprotection against haloperidol-induced oxidative stress in mice” (2009):

Tests used:
Format in all cases: functional
Mus musculus [1] = assay: Neuroprotective activity in Mus musculus Swiss albino (mouse) model assessed as reduction in haloperidol-induced catalepsy at 100 mg/kg, ip administered 30 min before haloperidol challenge measured for 30 to 180 min; parameters: scale not given: the % may be the effect or the level left; settings: route intraperitoneal
Mus musculus [2] = assay: Neuroprotective activity in haloperidol-induced catalepsy Mus musculus Swiss albino (mouse) model assessed as mean cumulative descent time at 100 mg/kg, po administered 30 min before haloperidol challenge (reference value: 33 +/- 1.34 min)
Mus musculus [3] = assay: Neuroprotective activity in haloperidol-induced catalepsy Mus musculus Swiss albino (mouse) model assessed as mean descent time at 100 mg/kg, po administered 30 min before haloperidol challenge measured at 30 min post challenge
Mus musculus [4] = assay: Neuroprotective activity in haloperidol-induced catalepsy Mus musculus Swiss albino (mouse) model assessed as mean descent time at 100 mg/kg, po administered 30 min before haloperidol challenge measured at 60 min post challenge
Mus musculus [5] = assay: Neuroprotective activity in haloperidol-induced catalepsy Mus musculus Swiss albino (mouse) model assessed as mean descent time at 100 mg/kg, po administered 30 min before haloperidol challenge measured at 90 min post challenge
Mus musculus [6] = assay: Neuroprotective activity in haloperidol-induced catalepsy Mus musculus Swiss albino (mouse) model assessed as mean descent time at 100 mg/kg, po administered 30 min before haloperidol challenge measured at 120 min post challenge
Mus musculus [7] = assay: Neuroprotective activity in haloperidol-induced catalepsy Mus musculus Swiss albino (mouse) model assessed as mean descent time at 100 mg/kg, po administered 30 min before haloperidol challenge measured at 150 min post challenge
Mus musculus [8] = assay: Neuroprotective activity in haloperidol-induced catalepsy Mus musculus Swiss albino (mouse) model assessed as mean descent time at 100 mg/kg, po administered 30 min before haloperidol challenge measured at 180 min post challenge

Row | SMILES | Activity (Mus musculus [1]) | Time (Mus musculus [2]) | Time (Mus musculus [3]) | Time (Mus musculus [4]) | Time (Mus musculus [5]) | Time (Mus musculus [6]) | Time (Mus musculus [7]) | Time (Mus musculus [8])
1 | O=C(Nc1nc2c(ccc3ccccc32)s1)Nc1ccccc1Br | 38.74% | 16.1 min | 77 s | 131 s | 145 s | 197 s | 219 s | 200 s
2 | S=C(Nc1ccc(Cl)cc1)Nc1nc2c(ccc3ccccc32)s1 | 27.88% | 18.9 min | 92 s | 169 s | 198 s | 216 s | 232 s | 228 s
3 | O=C(Nc1ccc(Br)cc1)Nc1nc2c(ccc3ccccc32)s1 | 37.76% | 16.4 min | 82 s | 123 s | 156 s | 191 s | 214 s | 218 s
4 | O=C(Nc1nc2c(ccc3ccccc32)s1)Nc1ccccc1F | 29.12% | 18.6 min | 57 s | 118 s | 188 s | 236 s | 245 s | 272 s
5 | O=[N+]([O-])c1ccc(NC(=S)Nc2nc3c(ccc4ccccc43)s2)cc1 | 32.13% | 17.8 min | 77 s | 178 s | 199 s | 201 s | 207 s | 208 s
6 | COc1cc(NC(=O)Nc2nc3c(ccc4ccccc43)s2)cc(OC)c1OC | 70.29% | 8.12 min | 29 s | 68 s | 85 s | 89 s | 107 s | 109 s
7 | S=C(Nc1nc2c(ccc3ccccc32)s1)Nc1ccccc1Br | 30.96% | 18.1 min | 83 s | 160 s | 189 s | 207 s | 223 s | 226 s
8 | COc1ccc(NC(=O)Nc2nc3c(ccc4ccccc43)s2)cc1 | 58.51% | 11.1 min | 41 s | 99 s | 122 s | 131 s | 136 s | 138 s
9 | O=C(Nc1ccc([N+](=O)[O-])cc1)Nc1nc2c(ccc3ccccc32)s1 | 31.28% | 18.1 min | 51 s | 113 s | 176 s | 229 s | 245 s | 269 s
10 | S=C(Nc1ccccc1)Nc1nc2c(ccc3ccccc32)s1 | 44.63% | 14.7 min | 65 s | 129 s | 151 s | 178 s | 174 s | 182 s
11 | Cc1ccccc1NC(=O)Nc1nc2c(ccc3ccccc32)s1 | 47.64% | 13.9 min | 71 s | 116 s | 138 s | 166 s | 170 s | 172 s
12 | O=C(Nc1nc2c(ccc3ccccc32)s1)Nc1cc(C(F)(F)F)ccc1Cl | 51.37% | 12.9 min | 67 s | 114 s | 141 s | 156 s | 150 s | 148 s
13 | Cc1ccc(NC(=O)Nc2nc3c(ccc4ccccc43)s2)cc1 | 48.56% | 13.7 min | 69 s | 113 s | 137 s | 161 s | 168 s | 171 s
14 | O=C(Nc1ccc(F)cc1)Nc1nc2c(ccc3ccccc32)s1 | 30.3% | 18.3 min | 84 s | 159 s | 196 s | 207 s | 226 s | 226 s
15 | N[C@@H](Cc1ccc(O)c(O)c1)C(=O)O [LEVODOPA] | 65.64% | 9.3 min | 32 s | 49 s | 99 s | 119 s | 122 s | 137 s
16 | Fc1ccc(NC(=S)Nc2nc3c(ccc4ccccc43)s2)cc1 | 34.95% | 17.1 min | 43 s | 98 s | 167 s | 246 s | 232 s | 241 s
17 | O=C(Nc1nc2c(ccc3ccccc32)s1)Nc1ccccc1Cl | 37.37% | 16.5 min | 59 s | 141 s | 159 s | 188 s | 211 s | 232 s
18 | Cc1ccc(NC(=S)Nc2nc3c(ccc4ccccc43)s2)cc1 | 47.97% | 13.8 min | 72 s | 114 s | 136 s | 161 s | 173 s | 172 s
19 | COc1ccc(NC(=S)Nc2nc3c(ccc4ccccc43)s2)cc1 | 58.05% | 11.2 min | 44 s | 112 s | 116 s | 128 s | 129 s | 145 s
20 | Fc1ccccc1NC(=S)Nc1nc2c(ccc3ccccc32)s1 | 38.35% | 16.2 min | 57 s | 143 s | 152 s | 183 s | 206 s | 234 s
21 | O=C(Nc1ccc(Oc2ccccc2)cc1)Nc1nc2c(ccc3ccccc32)s1 | 55.56% | 11.9 min | 76 s | 110 s | 119 s | 132 s | 135 s | 140 s
22 | Cc1ccccc1NC(=S)Nc1nc2c(ccc3ccccc32)s1 | 49.87% | 13.3 min | 68 s | 110 s | 138 s | 157 s | 160 s | 166 s
23 | S=C(Nc1nc2c(ccc3ccccc32)s1)Nc1ccccc1Cl | 39.14% | 16.1 min | 69 s | 156 s | 173 s | 190 s | 189 s | 186 s
24 | O=C(Nc1ccc(Cl)cc1)Nc1nc2c(ccc3ccccc32)s1 | 38.61% | 16.2 min | 78 s | 127 s | 171 s | 202 s | 199 s | 194 s
25 | O=C(Nc1ccccc1)Nc1nc2c(ccc3ccccc32)s1 | 44.44% | 14.7 min | 72 s | 132 s | 156 s | 174 s | 172 s | 176 s
26 | O=C(Nc1nc2c(ccc3ccccc32)s1)Nc1ccccc1[N+](=O)[O-] | 72.05% | 7.67 min | 19 s | 54 s | 57 s | 87 s | 98 s | 145 s
27 | S=C(Nc1ccc(Br)cc1)Nc1nc2c(ccc3ccccc32)s1 | 35.27% | 17 min | 57 s | 139 s | 161 s | 222 s | 223 s | 220 s
